The values that follow are results of earlier work, collected in US8442776B2, “Structure of compstatin-C3 complex and use for rational drug design” (The Trustees of the University of Pennsylvania, priority 2007, dated 2013).

Each structure is given as a SMILES string.

Data set [1] concerns complement system (C3 activation). The settings on record: read-out: inhibitory activity IC50.

One may read the IC50 as the concentration needed to halve the response being measured. Take `CC[C@H](C)[C@H](N)C(=O)N[C@H]1CSSC[C@@H](C(=O)N[C@H](C(N)=O)[C@@H](C)O)NC(=O)[C@H](CCCN=C(N)N)NC(=O)[C@H](Cc2cnc[nH]2)NC(=O)[C@H](Cc2cnc[nH]2)NC(=O)CNC(=O)[C@H](Cc2c[nH]c3ccccc23)NC(=O)[C@H](CC(=O)O)NC(=O)[C@H](CCC(N)=O)NC(=O)[C@H](C(C)C)NC(=O)[C@H](C(C)C)NC1=O` [Compstatin]: the half-maximal inhibitory concentration (IC50) in data set [1] was 12 µM. The “binding to primate C3” value in the data set with primate C3 was “binds only to primate C3”.
